What follows are compounds tested against modified SphK1 (Homo sapiens, UniProt Q9NYA1) (assay: SphK1 biochemical kinase assay (384-well flashplate)). Settings: IC50 ranges; 5 nM modified SphK1, 1 μM ATP, 30° C., 120 min; read-out: SphK1 Inhibition IC50.
Experimental: The kinase assay is carried out as a 384-well flashplate assay.
5 nM modified SphK1, 800 nM omega-biotinyl-D-erythro-sphingosine and 1 μM ATP (with 0.3 μCi of ^33P-ATP/well) are incubated in a total volume of 50 μl (25 mM HEPES, 5 mM MgCl2, 1 mM dithiothreitol, 0.01% of Brij35, 0.1% of BSA (fatty acid-free), pH 7.4) without or with test substance (5-10 concentrations) at 30° C. for 120 min. The reaction is terminated using 25 μl of 200 mM EDTA solution, filtered off with suction at room temperature after 30 min, and the cavities are washed 3 times with 100 μl of 0.9% NaCl solution. The non-specific proportion of the kinase reaction (blank) is determined using 0.5 mM NaCl. Radioactivity is measured in topcount. IC50 values are calculated using RS1.

Sequence of modified SphK1 (Q9NYA1 whole entry): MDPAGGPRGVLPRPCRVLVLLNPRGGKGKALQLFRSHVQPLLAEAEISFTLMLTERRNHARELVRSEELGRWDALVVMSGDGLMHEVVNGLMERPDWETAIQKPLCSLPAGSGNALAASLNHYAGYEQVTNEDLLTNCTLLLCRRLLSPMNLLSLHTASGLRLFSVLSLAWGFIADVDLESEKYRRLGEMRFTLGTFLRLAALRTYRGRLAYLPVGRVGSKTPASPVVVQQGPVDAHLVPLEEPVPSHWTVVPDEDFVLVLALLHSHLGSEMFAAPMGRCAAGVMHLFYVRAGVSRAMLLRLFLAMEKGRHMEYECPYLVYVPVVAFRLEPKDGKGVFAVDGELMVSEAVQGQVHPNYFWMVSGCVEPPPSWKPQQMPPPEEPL

| IC50 [nM] | SMILES |
| --- | --- |
| 100 to 1000 | CC1(C)CCC(C)(C)c2cc(-c3csc(N4CC[C@@H](N)C4)n3)ccc21 |
| 100 to 1000 | CC1(C)CCC(C)(C)c2cc(-c3csc(N4CC[C@H](N)C4)n3)ccc21 |
| > 1000 | CC1(C)CCC(C)(C)c2cc(-c3csc(N4CCCC(C(=O)NCCCO)C4)n3)ccc21 (stereo not shown) |
| 100 to 1000 | CC1(C)CCC(C)(C)c2cc(-c3csc(N4CCN(CCCCO)CC4)n3)ccc21 |
| > 1000 | CC1(C)CCC(C)(C)c2cc(-c3csc(C4CCCN(CCCCCO)C4)n3)ccc21 (stereo not shown) |
| 100 to 1000 | CC1(C)CCCc2cc(-c3csc(C4CCN(CCCCCO)C4)n3)ccc21 (stereo not shown) |
| 100 to 1000 | CC1(C)CCC(C)(C)c2cc(-c3csc(C4CCNC4)n3)ccc21 (stereo not shown) [2-Pyrrolidin-3-yl-4-(5,5,8,8-tetramethyl-5,6,7,8-tetrahydronaphthalen-2-yl)thiazole] |
| 100 to 1000 | CC1(C)CCC(C)(C)c2cc(-c3csc(N4CCCC(CCO)C4)n3)ccc21 (stereo not shown) |
| 100 to 1000 | CC1(C)CCC(C)(C)c2cc(-c3csc(N4CCCC(C(=O)NCCO)C4)n3)ccc21 (stereo not shown) |
| 100 to 1000 | CC1(C)CCCc2cc(-c3csc(C4CCN(CCCCO)C4)n3)ccc21 (stereo not shown) [4-{3-[4-(5,5-Dimethyl-5,6,7,8-tetrahydronaphthalen-2-yl)thiazol-2-yl]-pyrrolidin-1-yl}butan-1-ol] |
| 100 to 1000 | CC1(C)CCC(C)(C)c2cc(-c3csc(C4CCC(N)CC4)n3)ccc21 (stereo not shown) |
| > 1000 | CC1(C)CCC(C)(C)c2cc(-c3csc(C4CCCN(CCCCO)C4)n3)ccc21 (stereo not shown) |
| 100 to 1000 | CC1(C)CCC(C)(C)c2cc(-c3csc(N4CCN(CCO)CC4)n3)ccc21 |
| < 100 | CC1(C)CCC(C)(C)c2cc(-c3csc(N4CCC(NCCCO)CC4)n3)ccc21 |
| > 1000 | CC1(C)CCC(C)(C)c2cc(-c3csc(N4CCCC(CCCO)C4)n3)ccc21 (stereo not shown) |
| 100 to 1000 | CC1(C)CCC(C)(C)c2cc(-c3csc(C4CCCN(CCO)C4)n3)ccc21 (stereo not shown) |
| 100 to 1000 | CC1(C)CCC(C)(C)c2cc(-c3csc(N4CCN(CCCCCO)CC4)n3)ccc21 |
| > 1000 | CC1(C)CCC(C)(C)c2cc(-c3csc(N4CC[C@H](NCCCO)C4)n3)ccc21 |
| 100 to 1000 | CC1(C)CCC(C)(C)c2cc(-c3csc(N4CCN(CCCO)CC4)n3)ccc21 |
| > 1000 | CC1(C)CCC(C)(C)c2cc(-c3csc(N4CCC(CCCO)CC4)n3)ccc21 |

Continued, compound first:

| SMILES | IC50 [nM] |
| --- | --- |
| CC1(C)CCCc2cc(-c3csc(N4CCNCC4)n3)ccc21 [1-[4-(5,5-Dimethyl-5,6,7,8-tetrahydronaphthalen-2-yl)thiazol-2-yl]-piperazine] | 100 to 1000 |
| CC1(C)CCC(C)(C)c2cc(-c3csc(N4CCC(N5CCC(N)C5)CC4)n3)ccc21 (stereo not shown) | 100 to 1000 |
| CC1(C)CCC(C)(C)c2cc(-c3csc(N4CCC(N)C4)n3)ccc21 (stereo not shown) [1-[4-(5,5,8,8-Tetramethyl-5,6,7,8-tetrahydronaphthalen-2-yl)thiazol-2-yl]pyrrolidin-3-ylamine] | 100 to 1000 |
| CC1(C)CCC(C)(C)c2cc(-c3csc(N4CCC(N)CC4)n3)ccc21 [1-[4-(5,5,8,8-Tetramethyl-5,6,7,8-tetrahydronaphthalen-2-yl)thiazol-2-yl]piperidin-4-ylamine] | 100 to 1000 |
| CC1(C)CCc2cc(-c3csc(N4CCC(NCCO)CC4)n3)ccc21 [2-{1-[4-(1,1-Dimethylindan-5-yl)thiazol-2-yl]piperidin-4-ylamino}ethanol] | 100 to 1000 |
| CC1(C)CCC(C)(C)c2cc(-c3csc(N4CCN(CC(O)CO)CC4)n3)ccc21 (stereo not shown) | 100 to 1000 |
| CC1(C)CCC(C)(C)c2cc(-c3csc(N4CCC(N5CCOCC5)CC4)n3)ccc21 | > 1000 |
| CC1(C)CCC(C)(C)c2cc(-c3csc(N4CCC(N(CCO)CCO)CC4)n3)ccc21 [2-((2-Hydroxyethyl)-{1-[4-(5,5,8,8-tetramethyl-5,6,7,8-tetrahydronaphthalen-2-yl)thiazol-2-yl]piperidin-4-yl}amino)ethanol] | 100 to 1000 |
| CCOC(=O)C1CCN(c2nc(-c3ccc4c(c3)C(C)(C)CCC4(C)C)cs2)CC1 [1-[4-(5,5,8,8-Tetramethyl-5,6,7,8-tetrahydronaphthalen-2-yl)thiazol-2-yl]piperidine-4-carboxylic acid ethyl ester] | > 1000 |
| CC1(C)CCC(C)(C)c2cc(-c3csc(N4CCC(N5CCN(CCO)CC5)CC4)n3)ccc21 | 100 to 1000 |
| CC1(C)CCC(C)(C)c2cc(-c3csc(N4CCC(C5CCNCC5)CC4)n3)ccc21 [1-[4-(5,5,8,8-Tetramethyl-5,6,7,8-tetrahydronaphthalen-2-yl)thiazol-2-yl]-4,4′-bipiperidinyl] | 100 to 1000 |
| CC1(C)CCC(C)(C)c2cc(-c3csc(N4CCC(CCN5CCCC5)CC4)n3)ccc21 [4-(2-Pyrrolidin-1-ylethyl)-1-[4-(5,5,8,8-tetramethyl-5,6,7,8-tetrahydronaphthalen-2-yl)thiazol-2-yl]piperidine] | 100 to 1000 |
| CC(=O)N1CCC(c2csc(-c3ccc4c(c3)C(C)(C)CCC4(C)C)n2)CC1 | 100 to 1000 |
| CC1(C)CCC(C)(C)c2cc(-c3csc(N4CCC(NC[C@@H](O)CO)CC4)n3)ccc21 | 100 to 1000 |
| CC1(C)CCC(C)(C)c2cc(-c3csc(N4CCC(NC[C@@H](N)CO)CC4)n3)ccc21 | 100 to 1000 |
| CC1(C)CCC(C)(C)c2cc(-c3csc(N4CCN(C5CCCCC5O)CC4)n3)ccc21 (stereo not shown) | 100 to 1000 |
| CC1(C)CCC(C)(C)c2cc(-c3csc(N4CCC(C(=O)NCCO)CC4)n3)ccc21 | > 1000 |
| CC(=O)NC1CCN(C2CCN(c3nc(-c4ccc5c(c4)C(C)(C)CCC5(C)C)cs3)CC2)C1 (stereo not shown) | < 100 |
| Cn1cncc1CNC1CCN(c2nc(-c3ccc4c(c3)C(C)(C)CCC4(C)C)cs2)CC1 [(3-Methyl-3H-imidazol-4-ylmethyl)-{1-[4-(5,5,8,8-tetramethyl-5,6,7,8-tetrahydronaphthalen-2-yl)thiazol-2-yl]piperidin-4-yl}amine] | 100 to 1000 |
| CC1(C)CCC(C)(C)c2cc(-c3csc(N4CCC(NCCO)CC4)n3)ccc21 | < 100 |
| CC1(C)CCCc2cc(-c3csc(N4CCC(N)CC4)n3)ccc21 | 100 to 1000 |
| CC1(C)CCCc2cc(-c3csc(N4CCN(CCCCO)CC4)n3)ccc21 | 100 to 1000 |
| CC1(C)CCC(C)(C)c2cc(-c3csc(N4CCC(CCN)CC4)n3)ccc21 | 100 to 1000 |
| CC1(C)CCC(C)(C)c2cc(-c3csc(N4CCC(NCc5c[nH]cn5)CC4)n3)ccc21 [(1H-Imidazol-4-ylmethyl)-{1-[4-(5,5,8,8-tetramethyl-5,6,7,8-tetrahydronaphthalen-2-yl)thiazol-2-yl]piperidin-4-yl}amine] | < 100 |
| CC1(C)CCC(C)(C)c2cc(-c3csc(N4CCC(NC[C@H](O)CO)CC4)n3)ccc21 | < 100 |
| CC1(C)CCC(C)(C)c2cc(-c3csc(N4CCNCC4)n3)ccc21 [1-[4-(5,5,8,8-Tetramethyl-5,6,7,8-tetrahydronaphthalen-2-yl)thiazol-2-yl]piperazine] | 100 to 1000 |
| CC1(C)CCCc2cc(-c3csc(N4CCN(CCCCCO)CC4)n3)ccc21 [5-{4-[4-(5,5-Dimethyl-5,6,7,8-tetrahydronaphthalen-2-yl)thiazol-2-yl]-piperazin-1-yl}pentan-1-ol] | > 1000 |
| CN(C)C1CCN(c2nc(-c3ccc4c(c3)C(C)(C)CCC4(C)C)cs2)CC1 [Dimethyl-{1-[4-(5,5,8,8-tetramethyl-5,6,7,8-tetrahydronaphthalen-2-yl)thiazol-2-yl]piperidin-4-yl}amine] | < 100 |
| CC1(C)CCc2cc(-c3csc(N4CCC(NCCCO)CC4)n3)ccc21 [3-{1-[4-(1,1-Dimethylindan-5-yl)thiazol-2-yl]piperidin-4-ylamino}propan-1-ol] | 100 to 1000 |

Reference: US8907098B2, “Inhibitors of sphingosine kinase” (MERCK PATENT GmbH, priority 2009, dated 2014)
